Results on 30 compounds are retold here after patent US20260242372A1, “NOVEL IMIDAZOPYRIDINE AND PYRAZOLOPYRIDINE SULFONAMIDE DERIVATIVES” (Hoffmann-La Roche Inc., priority 2022, published 2026).

Usually IC50 stands for the concentration at which inhibition is half-maximal.

Sequence of human GPR17 short isoform (Q13304 29-367): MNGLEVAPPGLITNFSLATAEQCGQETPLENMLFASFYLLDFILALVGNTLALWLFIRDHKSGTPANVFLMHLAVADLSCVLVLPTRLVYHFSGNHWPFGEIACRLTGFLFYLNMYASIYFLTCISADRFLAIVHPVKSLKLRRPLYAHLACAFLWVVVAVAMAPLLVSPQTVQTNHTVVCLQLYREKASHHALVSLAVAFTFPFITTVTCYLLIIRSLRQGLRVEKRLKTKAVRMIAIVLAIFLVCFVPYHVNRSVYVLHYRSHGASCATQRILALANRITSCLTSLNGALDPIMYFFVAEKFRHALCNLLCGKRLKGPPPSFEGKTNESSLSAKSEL

The test concerns the target human GPR17 short isoform (Homo sapiens, UniProt Q13304). Kind of test: GPR17 cAMP assay (hGPR17 cAMP, TR-FRET, antagonist mode). It counts as cell-based. The note with it: CHO-K1 cells stably expressing human GPR17 short isoform; EC80 of agonist MDL29,951; forskolin 15 μM; 30 min at room temperature. As for the experimental part: CHO-K1 cells stably expressing vector containing untagged human GPR17 short isoform (Roche) were cultured at 37° C./5% CO2 in DMEM (Dulbecco's Modified Eagle Medium): F-12 (1:1) supplemented with 10% foetal bovine serum and 400 μg/ml Geneticin.
Changes in intracellular cyclic adenosine monophosphate (cAMP) levels were quantified using the Nano-TRF Detection Assay kit (Roche Diagnostics, Cat. No. 05214386001). This assay allows for direct cAMP quantification in a homogeneous solution. CAMP is detected based on time-resolved fluorescence energy transfer (TR-FRET) and competitive binding of ruthenylated cAMP and endogenous cAMP to an anti-cAMP monoclonal antibody labeled with AlexaFluor-700. The Ruthenium complex serves as the FRET donor and transfers energy to AlexaFluor-700. The FRET signal is inversely proportional to the CAMP concentration.
CHO-GPR17S cells were detached with Accutase and resuspended in assay buffer consisting of Hank's Balanced Salt Solution (HBSS), 10 mM HEPES (4-(2-hydroxyethyl) piperazine-1-ethanesulfonic acid solution) and 0.1% bovine serum albumin (pH 7.4). The cells were seeded in black 384-well plates (Corning) at a density of 10′000 cells/20 μl assay buffer until the addition of compounds.
Test antagonist compounds were serially diluted in dimethyl sulfoxide (DMSO) and spotted in 384-well plates. The compounds were then diluted in HBSS buffer supplemented with an EC80 concentration of MDL29,951 (3-(2-Carboxy-4,6-dichloroindol-3-yl) propionic acid) (GPR17 agonist) plus 3-Isobutyl-1-methylxanthine (IBMX) (0.5 mM final concentration) and added to the cells at room temperature. Forskolin (15 μM final concentration) was added 5 minutes after the test compounds and the cells were incubated at room temperature for 30 minutes. The assay was stopped by adding cAMP detection mix (containing detergents for cell lysis) for 90 minutes at room temperature.
Cellular cAMP was measured using a Paradigm reader (Molecular Devices). The raw data was used to calculate the FRET signal based on the assay's P-factor as per cAMP kit instructions. The data was normalized to the maximal activity of a reference antagonist and dose response curves were fitted to the percent activity of the test compounds using a sigmoidal dose response model (Genedata Screener).
(In general: Changes in cAMP serve as a functional read-out for many G protein-coupled receptors.)
`COc1nc(OCC(F)F)c(F)cc1NS(=O)(=O)c1cnc2cc(C(F)F)ccn12` [Example 14, N-[6-(2,2-difluoroethoxy)-5-fluoro-2-methoxy-3-pyridyl]-7-(difluoromethyl)imidazo[1,2-a]pyridine-3-sulfonamide]: the IC50 was determined as 18 nM. Compound `COc1nc(OC(F)F)c(F)cc1NS(=O)(=O)c1cnc2cc(Br)ccn12` [Example 8, 7-bromo-N-[6-(difluoromethoxy)-5-fluoro-2-methoxy-3-pyridyl]imidazo[1,2-a]pyridine-3-sulfonamide] yielded an IC50 of 9 nM.

Compound `COc1nc(NS(=O)(=O)c2cnc3cc(Br)ccn23)nc(OC)c1Br` [Example 46, 7-bromo-N-(5-bromo-4,6-dimethoxy-pyrimidin-2-yl)imidazo[1,2-a]pyridine-3-sulfonamide] registered an IC50 of 82 nM.

On to `COc1nc(CC(F)F)c(F)cc1NS(=O)(=O)c1cnc2cc(Cl)ccn12` [Example 11, 7-chloro-N-[6-(2,2-difluoroethyl)-5-fluoro-2-methoxy-3-pyridyl]imidazo[1,2-a]pyridine-3-sulfonamide], for which the 50% inhibitory concentration (IC50) was 14 nM. For `O=S(=O)(Nc1cc(F)c(OC(F)F)nc1OC(F)F)c1cnc2cc(Cl)ccn12` [Example 38, N-[2,6-bis(difluoromethoxy)-5-fluoro-3-pyridyl]-7-chloro-imidazo[1,2-a]pyridine-3-sulfonamide] the value was 57 nM; for `COc1nc(NS(=O)(=O)c2cnn3cc(Br)ccc23)c(F)cc1OCCF` [Example 80, 6-bromo-N-[3-fluoro-5-(2-fluoroethoxy)-6-methoxy-2-pyridyl]pyrazolo[1,5-a]pyridine-3-sulfonamide], 26 nM; for `COc1nc(OCC(F)F)c(F)cc1NS(=O)(=O)c1cnc2nc(C3COC3)ccn12` [Example 103, N-[6-(2,2-difluoroethoxy)-5-fluoro-2-methoxy-3-pyridyl]-7-(oxetan-3-yl)imidazo[1,2-a]pyrimidine-3-sulfonamide], 492 nM. `COc1nc(CC#N)c(F)cc1NS(=O)(=O)c1cnc2cc(Cl)ccn12` [Example 22, 7-chloro-N-[6-(cyanomethyl)-5-fluoro-2-methoxy-3-pyridyl]imidazo[1,2-a]pyridine-3-sulfonamide] returned an IC50 of 23 nM. Regarding `COc1nc(OCC(F)F)c(F)cc1NS(=O)(=O)c1cnc2n1CCCC2` [Example 63, N-[6-(2,2-difluoroethoxy)-5-fluoro-2-methoxy-3-pyridyl]-5,6,7,8-tetrahydroimidazo[1,2-a]pyridine-3-sulfonamide], the IC50 was 217 nM. This IC50 lies about 9.4-fold higher than the previous one. `COc1nc(NS(=O)(=O)c2cnc3cc(Br)ccn23)c(F)cc1CC#N` [Example 21, 7-bromo-N-[5-(cyanomethyl)-3-fluoro-6-methoxy-2-pyridyl]imidazo[1,2-a]pyridine-3-sulfonamide] had an IC50 of 21 nM. Against the preceding compound, the IC50 is about 10-fold lower. In the case of `COc1nc(NS(=O)(=O)c2cnn3cc(Br)ccc23)c(F)cc1OC(F)F` [Example 99, 6-bromo-N-[5-(difluoromethoxy)-3-fluoro-6-methoxy-2-pyridyl]pyrazolo[1,5-a]pyridine-3-sulfonamide], the half-inhibitory concentration (IC50) amounted to 8 nM. In turn, `COc1nc(NS(=O)(=O)c2cnc3cc(Cl)ccn23)nc(OC)c1OCCF` [Example 89, 7-chloro-N-[5-(2-fluoroethoxy)-4,6-dimethoxy-pyrimidin-2-yl]imidazo[1,2-a]pyridine-3-sulfonamide] showed an IC50 of 139 nM.

`COc1nc(OCC(F)F)c(F)cc1NS(=O)(=O)c1cnc2cc(C3COC3)ccn12` [Example 100, N-[6-(2,2-difluoroethoxy)-5-fluoro-2-methoxy-3-pyridyl]-7-(oxetan-3-yl)imidazo[1,2-a]pyridine-3-sulfonamide] registered an IC50 of 37 nM.

As to `COc1nc(OCC(F)F)c(F)cc1NS(=O)(=O)c1cnc2cc(C)ccn12` [Example 2, N-[6-(2,2-difluoroethoxy)-5-fluoro-2-methoxy-3-pyridyl]-7-methyl-imidazo[1,2-a]pyridine-3-sulfonamide], the IC50 amounted to 7 nM.

In turn, `COc1nc(OCC(F)F)c(F)cc1NS(=O)(=O)c1cnc2nc(Cl)ccn12` [Example 42, 7-chloro-N-[6-(2,2-difluoroethoxy)-5-fluoro-2-methoxy-3-pyridyl]imidazo[1,2-a]pyrimidine-3-sulfonamide] yielded an IC50 of 72 nM.

`COc1nc(OCC(F)F)c(F)cc1NS(=O)(=O)c1cnn2c1CCC(C)C2` (stereo not drawn) [Example 83, N-[6-(2,2-difluoroethoxy)-5-fluoro-2-methoxy-3-pyridyl]-6-methyl-4,5,6,7-tetrahydropyrazolo[1,5-a]pyridine-3-sulfonamide] had an IC50 of 100 nM. As to `N#CCc1cc(F)c(NS(=O)(=O)c2cnc3cc(Cl)ccn23)cc1F` [Example 64, 7-chloro-N-(4-(cyanomethyl)-2,5-difluorophenyl)imidazo[1,2-a]pyridine-3-sulfonamide], the IC50 worked out at 251 nM. The compound `COc1nc(OCC(F)F)c(F)cc1NS(=O)(=O)c1cnc2cc(C3CC3)ccn12` [Example 94, 7-cyclopropyl-N-[6-(2,2-difluoroethoxy)-5-fluoro-2-methoxy-3-pyridyl]imidazo[1,2-a]pyridine-3-sulfonamide] came in with a 50% inhibitory concentration (IC50) of 9 nM.

As for `COc1nc(OCC(F)F)c(F)cc1NS(=O)(=O)c1cnc2c(C)cccn12` [Example 71, N-[6-(2,2-difluoroethoxy)-5-fluoro-2-methoxy-3-pyridyl]-8-methyl-imidazo[1,2-a]pyridine-3-sulfonamide], the IC50 came out at 413 nM.

`Cc1ccn2c(S(=O)(=O)Nc3cc(F)c(OC(F)F)nc3OC(F)F)cnc2c1C#N` [Example 66, N-[2,6-bis(difluoromethoxy)-5-fluoro-3-pyridyl]-8-cyano-7-methyl-imidazo[1,2-a]pyridine-3-sulfonamide] came in with a half-maximal inhibitory concentration (IC50) of 289 nM. Compound `COc1nc(OCC(F)F)c(F)cc1NS(=O)(=O)c1cnc2c(C#N)c(OC(F)F)ccn12` [Example 65, 8-cyano-N-[6-(2,2-difluoroethoxy)-5-fluoro-2-methoxy-3-pyridyl]-7-(difluoromethoxy)imidazo[1,2-a]pyridine-3-sulfonamide] returned an IC50 of 270 nM. For the compound `COc1nc(CCC(F)F)c(F)cc1NS(=O)(=O)c1cnc2cc(Cl)ccn12` [Example 9, 7-chloro-N-[6-(3,3-difluoropropyl)-5-fluoro-2-methoxy-3-pyridyl]imidazo[1,2-a]pyridine-3-sulfonamide], the IC50 amounted to 11 nM. As for `COc1nc(NS(=O)(=O)c2cnc3cc(C4COC4)ccn23)c(F)cc1CC(F)F` [Example 102, N-[5-(2,2-difluoroethyl)-3-fluoro-6-methoxy-2-pyridyl]-7-(oxetan-3-yl)imidazo[1,2-a]pyridine-3-sulfonamide], the IC50 was determined as 201 nM.

Turning to `COc1nc(OCC(F)F)c(F)cc1NS(=O)(=O)c1cnc2cc(Br)ccn12` [Example 1, 7-bromo-N-[6-(2,2-difluoroethoxy)-5-fluoro-2-methoxy-3-pyridyl]imidazo[1,2-a]pyridine-3-sulfonamide], the IC50 was found to be 5 nM. Compared with the last compound, the IC50 is about 40-fold lower. Compound `COc1nc(OCC(F)F)c(F)cc1NS(=O)(=O)c1cnc2n1CCC2C` (stereo not drawn) [Example 75, N-[6-(2,2-difluoroethoxy)-5-fluoro-2-methoxy-3-pyridyl]-7-methyl-6,7-dihydro-5H-pyrrol[1,2-a]imidazole-3-sulfonamide] displayed a half-maximal inhibitory concentration (IC50) of 974 nM. For `COc1nc(OCC(F)F)c(F)cc1NS(=O)(=O)c1cnc2c(OC)c(Cl)ccn12` [Example 12, 7-chloro-N-[6-(2,2-difluoroethoxy)-5-fluoro-2-methoxy-3-pyridyl]-8-methoxy-imidazo[1,2-a]pyridine-3-sulfonamide], the half-maximal inhibitory concentration (IC50) is 16 nM.

In turn, `COc1nc(OCC(F)F)c(F)cc1NS(=O)(=O)c1cnc2nc(C)ccn12` [Example 48, N-[6-(2,2-difluoroethoxy)-5-fluoro-2-methoxy-3-pyridyl]-7-methyl-imidazo[1,2-a]pyrimidine-3-sulfonamide] returned an IC50 of 85 nM. In the case of `COc1nc(C2CC2)c(F)cc1NS(=O)(=O)c1cnc2cc(Cl)ccn12` [Example 25, 7-chloro-N-(6-cyclopropyl-5-fluoro-2-methoxy-3-pyridyl)imidazo[1,2-a]pyridine-3-sulfonamide], the IC50 amounted to 23 nM. The compound `COc1ccn2c(S(=O)(=O)Nc3cc(F)c(OCC(F)F)nc3OC)cnc2c1` [Example 15, N-[6-(2,2-difluoroethoxy)-5-fluoro-2-methoxy-3-pyridyl]-7-methoxy-imidazo[1,2-a]pyridine-3-sulfonamide] had an IC50 of 18 nM. As for `COc1nc(OCC(F)F)c(F)cc1NS(=O)(=O)c1cnc2c(C#N)c(Cl)ccn12` [Example 52, 7-chloro-8-cyano-N-[6-(2,2-difluoroethoxy)-5-fluoro-2-methoxy-3-pyridyl]imidazo[1,2-a]pyridine-3-sulfonamide], the IC50 came to 99 nM.
